The source made the active and inactive calls. The rule behind the calls is not given here.
Key:
MC3T3-E1 [1] = experiment: Induction of cells differentiation in mouse MC3T3-E1 cells assessed as increase in osteocalcin production after 14 days by EIA; assay type: functional, cell-based
MC3T3-E1 [2] = experiment: Induction of osteogenesis in mouse MC3T3-E1 cells assessed as cell differentiation at 30 uM after 6 days by alkaline phosphatase activity assay; assay type: functional, cell-based
[3] = Cytotoxicity against mouse MC3T3-E1 cells at 30 uM after 6 days; assay type: cell-based; settings: mc3t3-e1, 144 h
MC3T3-E1 [4] = experiment: Induction of cells differentiation in mouse MC3T3-E1 cells assessed as increase in mineralization after 14 days by Alizarin Red S staining; assay type: functional, cell-based
RAW264 = experiment: Induction of osteoclast differentiation in mouse RAW264 cells assessed as TRAP activity; assay type: functional, cell-based
MC3T3-E1 [5] = experiment: Induction of osteogenesis in mouse MC3T3-E1 cells assessed as increase in alkaline phosphatase activity after 6 days; assay type: functional, cell-based
Mus musculus = species: Mus musculus; experiment: Induction of osteogenesis in mouse primary calvarial cells assessed as increase in alkaline phosphatase activity measured by ALP staining after 14 days; assay type: functional
MC3T3-E1 [6] = experiment: Induction of osteogenesis in mouse MC3T3-E1 cells assessed as increase in alkaline phosphatase activity at 30 uM after 6 days in presence of 50 ng/ml noggin BMP antagonist; assay type: functional, cell-based
MC3T3-E1 [7] = experiment: Induction of osteogenesis in mouse MC3T3-E1 cells assessed as increase in alkaline phosphatase activity at 30 uM after 6 days in presence of 0.1 uM LDN-193289 BMP receptor kinase inhibitor; assay type: functional, cell-based
MC3T3-E1 [8] = experiment: Induction of osteogenesis in mouse MC3T3-E1 cells assessed as increase in alkaline phosphatase activity at 30 uM after 6 days in presence of 5 uM SB203580 p38 MAPK inhibitor; assay type: functional, cell-based

With `OC[C@H]1O[C@H](Oc2ccc3cc2Oc2ccc(cc2)CC[C@@H](O)CCCC3)[C@H](O)[C@@H](O)[C@@H]1O` [ACEROSIDE I] the Activity (MC3T3-E1 [1]) was “Active”, the Activity (MC3T3-E1 [2]) was “Active” and the Activity [3] was “Non-toxic”. For the same molecule, the Activity (MC3T3-E1 [4]) was “Dose-dependent effect” and the Activity (RAW264) was “inactive”.
In the case of `Oc1ccc2cc1Oc1ccc(cc1)CC[C@H](O)CCCC2` [ACEROGENIN A], the Activity (MC3T3-E1 [1]) was “Active”, the Activity (MC3T3-E1 [2]) was “Active” and the Activity [3] was “Non-toxic”. The Activity (MC3T3-E1 [5]) was “Dose-dependent effect”, the Activity (Mus musculus) was “Active” and the Activity (MC3T3-E1 [4]) was “Dose-dependent effect”. The Activity (MC3T3-E1 [6]) was “inactive”, the Activity (MC3T3-E1 [7]) was “inactive” and the Activity (MC3T3-E1 [8]) was “inactive”. For the same molecule, the Activity (RAW264) was “inactive”.
In the case of `C[C@H](O)CCc1ccc(O)cc1`, the Activity (MC3T3-E1 [2]) was “inactive”, the Activity [3] was “Non-toxic” and the Activity (RAW264) was “inactive”.
With `OC[C@H]1O[C@@H](Oc2ccc3cc2Oc2ccc(cc2)CCCC[C@@H](O)CC3)[C@H](O)[C@@H](O)[C@@H]1O` [ACEROSIDE B1] the Activity (MC3T3-E1 [1]) was “Active”, the Activity (MC3T3-E1 [2]) was “Active” and the Activity [3] was “Non-toxic”. For the same molecule, the Activity (MC3T3-E1 [4]) was “Dose-dependent effect” and the Activity (RAW264) was “inactive”.
For `Oc1cc(O)c2c(c1)O[C@H](c1ccc(O)c(O)c1)[C@@H](O)C2` [CIANIDANOL], the Activity [3] was “Non-toxic” and the Activity (RAW264) was “inactive”.
In the case of `Oc1ccc2cc1Oc1ccc(cc1)CCCC[C@@H](O)CC2`, the Activity (MC3T3-E1 [1]) was “Active”, the Activity (MC3T3-E1 [2]) was “Active” and the Activity [3] was “Non-toxic”. The Activity (MC3T3-E1 [4]) was “Dose-dependent effect” and the Activity (RAW264) was “inactive”.
With `OC[C@@]1(O)CO[C@@H](OC[C@H]2O[C@@H](O[C@@H]3CCCCc4ccc(O)c(c4)Oc4ccc(cc4)CC3)[C@H](O)[C@@H](O)[C@@H]2O)[C@@H]1O` [ACEROSIDE III] the Activity (MC3T3-E1 [2]) was “Active”, the Activity [3] was “Non-toxic” and the Activity (RAW264) was “inactive”.
In the case of `Oc1ccc(CCCC[C@@H](O)CCc2ccc(O)cc2)cc1`, the Activity [3] was “Toxic” and the Activity (RAW264) was “inactive”.
